Assay results from PubChem BioAssay AID330 (DTP/NCI, 2004).
Several values for one entry are separate records, joined by “and”; a condition that tells them apart may be missing. Identical values can stand only once. Toxic doses and inconclusive results are not listed. The calls were made as follows: active = survival T/C of 150% or more; inactive = T/C below 125% in these data.

Test system: P388 leukemia ip, CD2F1 mice, survival T/C
Experiment: NCI In Vivo Anticancer Drug Screen. Data for tumor model P388 Leukemia (intraperitoneal) in CD2F1 (CDF1) mice
Conditions: endpoint: median survival time, higher = longer survival
In short: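 Mice carrying the transplanted tumor received test compound or vehicle. Survival was recorded in each group, and the value is the treated-group measurement divided by that of the vehicle-treated control group.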

[1] = dose: 100.0 mg/kg/injection, schedule: Q04DX003 (ip), vehicle: saline with Tween-80
[2] = dose: 400.0 mg/kg/injection, schedule: Q04DX003 (ip), vehicle: saline with Tween-80
[3] = dose: 60.0 mg/kg/injection, schedule: Q01DX005 (ip), vehicle: saline with Tween-80
[4] = dose: 120.0 mg/kg/injection, schedule: Q01DX005 (ip), vehicle: saline with Tween-80
[5] = dose: 240.0 mg/kg/injection, schedule: Q01DX005 (ip), vehicle: saline with Tween-80
[6] = dose: 12.5 mg/kg/injection, schedule: Q01DX009 (ip), vehicle: saline with Tween-80
[7] = dose: 25.0 mg/kg/injection, schedule: Q01DX009 (ip), vehicle: saline with Tween-80
[8] = dose: 50.0 mg/kg/injection, schedule: Q01DX009 (ip), vehicle: saline with Tween-80
[9] = dose: 200.0 mg/kg/injection, schedule: Q01DX009 (ip), vehicle: saline with Tween-80
[10] = dose: 100.0 mg/kg/injection, schedule: Q01DX009 (ip), vehicle: saline with Tween-80

Measured: T/C

COc1ccc(C(=O)/C(C)=C(/C)NCCC#N)c(OCc2ccccc2)c1OC
inactive: dose: 25.0 mg/kg/injection, schedule: Q01DX009 (ip), vehicle: other 95 % of control | dose: 50.0 mg/kg/injection, schedule: Q01DX009 (ip), vehicle: other 91 % of control | dose: 100.0 mg/kg/injection, schedule: Q01DX009 (ip), vehicle: other 95 % of control | dose: 200.0 mg/kg/injection, schedule: Q01DX009 (ip), vehicle: other 100 % of control | dose: 400.0 mg/kg/injection, schedule: Q01DX009 (ip), vehicle: other 95 % of control

COc1ccc(C2SCC(=O)N2c2nncs2)c(OC)c1 (centres undefined)
inactive: dose: 60.0 mg/kg/injection, schedule: Q01DX005 (ip), vehicle: Klucel (hydroxypropylcellulose) (HPC) 99 % of control | dose: 120.0 mg/kg/injection, schedule: Q01DX005 (ip), vehicle: Klucel (hydroxypropylcellulose) (HPC) 106 % of control | dose: 240.0 mg/kg/injection, schedule: Q01DX005 (ip), vehicle: Klucel (hydroxypropylcellulose) (HPC) 110 % of control

CC(C)Cn1cnc2c(=S)nc(N)[nH]c21
inactive: dose: 8.0 mg/kg/injection, schedule: Q01DX009 (ip), vehicle: saline with Tween-80 95 % of control | dose: 16.0 mg/kg/injection, schedule: Q01DX009 (ip), vehicle: saline with Tween-80 100 % of control | dose: 32.0 mg/kg/injection, schedule: Q01DX009 (ip), vehicle: saline with Tween-80 100 % of control | dose: 64.0 mg/kg/injection, schedule: Q01DX009 (ip), vehicle: saline with Tween-80 90 % of control | [1] 109 % of control | dose: 264.0 mg/kg/injection, schedule: Q04DX003 (ip), vehicle: saline with Tween-80 100 % of control | [2] 112 % of control | dose: 600.0 mg/kg/injection, schedule: Q04DX003 (ip), vehicle: saline with Tween-80 116 % of control

CC(=O)NC(CS)C(=O)O (centres undefined)
inactive: dose: 50.0 mg/kg/injection, schedule: Q01DX009 (ip), vehicle: saline 111 % of control and 88 % of control | dose: 100.0 mg/kg/injection, schedule: Q01DX009 (ip), vehicle: saline 103 % of control and 104 % of control and 111 % of control | dose: 200.0 mg/kg/injection, schedule: Q01DX009 (ip), vehicle: saline 99 % of control (2×) and 109 % of control

CC(Br)C(C)(C)OO (centres undefined)
inactive: dose: 100.0 mg/kg/injection, schedule: Q01DX001 (ip), vehicle: Klucel (hydroxypropylcellulose) (HPC) 101 % of control | dose: 200.0 mg/kg/injection, schedule: Q01DX001 (ip), vehicle: Klucel (hydroxypropylcellulose) (HPC) 95 % of control | dose: 400.0 mg/kg/injection, schedule: Q01DX001 (ip), vehicle: Klucel (hydroxypropylcellulose) (HPC) 100 % of control

Cc1ccc(CCNC(=O)c2c3nc4c(C(=O)NCCc5ccc(C)cc5)cccc4oc-3cc(=O)c2N)cc1
inactive: dose: 50.0 mg/kg/injection, schedule: Q01DX005 (ip), vehicle: saline with Tween-80 93 % of control | dose: 100.0 mg/kg/injection, schedule: Q01DX005 (ip), vehicle: saline with Tween-80 87 % of control | dose: 200.0 mg/kg/injection, schedule: Q01DX005 (ip), vehicle: saline with Tween-80 100 % of control

CCOC(=O)C1=C(Nc2cccc3c(NC4=C(C(=O)OCC)C(=O)CO4)cccc23)OCC1=O
inactive: [3] 109 % of control | [4] 99 % of control | [5] 98 % of control

COc1ccc(C2=NC(c3ccccc3)N3C(c4ccccc4)NC(c4ccccc4)C2C3c2ccccc2)cc1 (centres undefined)
inactive: [6] 100 % of control | [7] 90 % of control | [8] 90 % of control and 93 % of control | [9] 91 % of control

CCN(Cc1c(C)nc2ccc(N(C)C)cc2c1Cl)CN(CC)Cc1c(C)nc2ccc(N(C)C)cc2c1Cl
inactive: dose: 100.0 mg/kg/injection, schedule: Q01DX002 (ip), vehicle: saline with Tween-80 100 % of control | dose: 200.0 mg/kg/injection, schedule: Q01DX002 (ip), vehicle: saline with Tween-80 94 % of control | dose: 400.0 mg/kg/injection, schedule: Q01DX002 (ip), vehicle: saline with Tween-80 98 % of control

COc1cc(C2c3cc4c(cc3OC3(O)CCCC23)OCO4)cc(OC)c1OC (centres undefined)
inactive: [3] 91 % of control | [4] 93 % of control | [5] 99 % of control

CCOC(=O)C1=C(C(=O)c2ccc(OC)cc2)C(c2ccc(OC)c(OC)c2)C(C(=O)c2ccc(OC)cc2)=C(C(=O)OCC)N1
inactive: [3] 90 % of control | [4] 91 % of control

CSc1nc(N)c(C(=O)N2CCCCC2)s1
inactive: dose: 50.0 mg/kg/injection, schedule: Q01DX009 (ip), vehicle: Klucel (hydroxypropylcellulose) (HPC) 100 % of control | dose: 100.0 mg/kg/injection, schedule: Q01DX009 (ip), vehicle: Klucel (hydroxypropylcellulose) (HPC) 100 % of control | dose: 200.0 mg/kg/injection, schedule: Q01DX009 (ip), vehicle: Klucel (hydroxypropylcellulose) (HPC) 89 % of control

CN(C)C(=S)S(=O)(=O)c1ccc(Cl)cc1
inactive: [6] 105 % of control | [7] 96 % of control | dose: 25.0 mg/kg/injection, schedule: Q04DX002 (ip), vehicle: Klucel (hydroxypropylcellulose) (HPC) 119 % of control | [8] 96 % of control | dose: 50.0 mg/kg/injection, schedule: Q04DX002 (ip), vehicle: Klucel (hydroxypropylcellulose) (HPC) 112 % of control

CCCCOC(=O)C1CSSCC(NC(C)=O)C(=O)N1 (centres undefined)
inactive: dose: 17.5 mg/kg/injection, schedule: Q01DX005 (ip), vehicle: Klucel (hydroxypropylcellulose) (HPC) 101 % of control | dose: 35.0 mg/kg/injection, schedule: Q01DX005 (ip), vehicle: Klucel (hydroxypropylcellulose) (HPC) 102 % of control | dose: 70.0 mg/kg/injection, schedule: Q01DX005 (ip), vehicle: Klucel (hydroxypropylcellulose) (HPC) 108 % of control

Br[C](Br)(Br)[Hg][c]1ccccc1
inactive: dose: 3.13 mg/kg/injection, schedule: Q01DX009 (ip), vehicle: saline with Tween-80 106 % of control | dose: 6.25 mg/kg/injection, schedule: Q01DX009 (ip), vehicle: saline with Tween-80 100 % of control | [6] 104 % of control

Nc1ncccc1O
inactive: dose: 2.5 mg/kg/injection, schedule: Q01DX009 (ip), vehicle: saline 104 % of control | dose: 5.0 mg/kg/injection, schedule: Q01DX009 (ip), vehicle: saline 97 % of control | dose: 10.0 mg/kg/injection, schedule: Q01DX009 (ip), vehicle: saline 96 % of control | dose: 20.0 mg/kg/injection, schedule: Q01DX009 (ip), vehicle: saline 110 % of control | dose: 40.0 mg/kg/injection, schedule: Q01DX009 (ip), vehicle: saline 107 % of control

COc1cccc(OC)c1[N+](=O)[O-]
inactive: [8] 87 % of control | [10] 97 % of control | [9] 106 % of control

Clc1cc(Cl)c(CBr)cc1CBr
inactive: dose: 3.0 mg/kg/injection, schedule: Q04DX003 (ip), vehicle: saline with Tween-80 104 % of control | dose: 6.0 mg/kg/injection, schedule: Q04DX003 (ip), vehicle: saline with Tween-80 104 % of control | dose: 12.0 mg/kg/injection, schedule: Q04DX003 (ip), vehicle: saline with Tween-80 100 % of control

COC(=O)C1=C/CCCN(CCC2OCCO2)/C=C\1C(=O)OC
inactive: [1] 106 % of control | dose: 200.0 mg/kg/injection, schedule: Q04DX003 (ip), vehicle: saline with Tween-80 99 % of control | [2] 108 % of control

Cn1c(-c2ccccc2)c/c(=N\NS(C)(=O)=O)c2cc(S(=O)(=O)O)ccc21
inactive: [8] 96 % of control | [10] 91 % of control | [9] 98 % of control

CN1CCc2[nH]c3ccccc3c2C1
inactive: dose: 100.0 mg/kg/injection, schedule: Q04DX002 (ip), vehicle: Klucel (hydroxypropylcellulose) (HPC) 100 % of control | dose: 200.0 mg/kg/injection, schedule: Q04DX002 (ip), vehicle: Klucel (hydroxypropylcellulose) (HPC) 102 % of control

CCOP(O)(=S)OCC.[Gd]
inactive: dose: 100.0 mg/kg/injection, schedule: Q04DX003 (ip), vehicle: Klucel (hydroxypropylcellulose) (HPC) 90 % of control | dose: 200.0 mg/kg/injection, schedule: Q04DX003 (ip), vehicle: Klucel (hydroxypropylcellulose) (HPC) 90 % of control | dose: 400.0 mg/kg/injection, schedule: Q04DX003 (ip), vehicle: Klucel (hydroxypropylcellulose) (HPC) 90 % of control

COC1OC(COC(=O)c2ccccc2)C(=O)C(OC(=O)c2ccccc2)C1N(O)C1C(COC(=O)c2ccccc2)OC2OC(C)(C)OC21 (centres undefined)
inactive: dose: 50.0 mg/kg/injection, schedule: Q01DX005 (ip), vehicle: Klucel (hydroxypropylcellulose) (HPC) 101 % of control | dose: 100.0 mg/kg/injection, schedule: Q01DX005 (ip), vehicle: Klucel (hydroxypropylcellulose) (HPC) 105 % of control | dose: 200.0 mg/kg/injection, schedule: Q01DX005 (ip), vehicle: Klucel (hydroxypropylcellulose) (HPC) 100 % of control
